Where a SMILES comes first, the peptide text is derived from it. [ ]: non-standard residue; d: D form. The star is where a group is joined. Phe(4-NH2) = Nc1ccc(C[C@H](N)C(=O)O)cc1; Ac8c = NC1(C(=O)O)CCCCCCC1; Ac6c = NC1(C(=O)O)CCCCC1; Bn = c1ccc(C*)cc1
Biological target: T1, human glucagon-like peptide-1 receptor (GLP-1R) (Homo sapiens, UniProt P43220)
T1 construct: host or cells: CHO chAMPion cells
Experiment: Human GLP-1 receptor cell-based assay (flash luminescence, Target Activation phase)
Settings: CHO chAMPion cells stably co-expressing human GLP-1R, Photina and cAMP-activated calcium channel; agonist activity; normalization by forskolin at 10 μM; ^a) values from single experiment; read-out: EC50 (μM) Target Activation (TA)
Text: CHO chAMPion cells (Axxam SpA; S. Corazza, Assay Drug Dev. Technol. 2009, 7, 304-307) stably co-expressing the human glucagon-like peptide-1 receptor (GLP-1R), the Ca^2+-sensitive photoprotein PHOTINA® (S. Bovolenta et al., J. Biomol. Screen. 2007, 12, 694-704) and a mutated cAMP-activated calcium ion channel (WO2004/083803 A2) were used to monitor GLP-1R signaling after stimulation with an agonist. Activation of the Gas-coupled GPCR GLP-1R was monitored by measuring the flash luminescence of the Ca^2+-sensitive photoprotein as reporter system with FLIPR^TETRA screening instrumentation (Molecular Devices) upgraded with an ICCD Camera (MDC). For data quality check and data analysis the Genedata SCREENER® software was used.
The reference agonist GLP-1 (glucagon-like peptide-1 amide fragment 7-36) and forskolin were purchased from Sigma (cat. G8147 and F6886, respectively) and prepared according to each ligand's specifications. All handling of ligands were done to ensure proper control throughout the experiments. The steps of the implemented workflow and data analysis are mainly as follows:
Stably transfected chAMPion cells are seeded 10000 c/w in 384 MTP in Dulbecco's MEM/nutrient mix F12 (BioWhittaker cat. BE04-687F/U1; 500 mL) supplemented with sodium pyruvate (BioWhittaker cat. BE13-115E; 5 mL of 100 mM solution), HEPES (BioWhittaker cat. BE17-737E; 6.5 mL of 1M solution), sodium bicarbonate (BioWhittaker cat. BE17-613E; 25 mL of 7.5% solution), fetal bovine serum (Euroclone cat. ECS 0180L; 50 mL), penicillin-streptomycin (BioWhittaker cat. DE17-602E; 5 mL of 100×solution), 1 mg/mL G418 (selection antibiotic for GLP-1R) and 200 μg/mL hygromycin in 25 μL/well for 24 hours. On the day of the experiment, plates are removed from the incubator, freed from the growth medium, equilibrated at room temperature for 1 h, loaded with 30 μl/well of Ca^2+ free Tyrode's buffer containing 20 μM coelentrazine and 500 μM IBMX, and incubated for 4 hours at room temperature.
All compounds were tested at 8 concentrations, starting from 50 μM in quadruplicate, intra-plate (dilution step 1:2.15) to determine EC50 values. After incubation, the volume in all the wells is flattened to 20 αL by aspiration with a CYBIO®-VARIO pipettor. First Injection (10 μL of test compounds in Ca^2+ free Tyrode's buffer, DMSO 0.5% v/v and BSA 0.01%; or 10 μL of reference compounds GLP-1 or forskolin in Ca′ free Tyrode's buffer, DMSO 0.5% v/v and BSA 0.01%) is performed by the FLIPR^TETRA and the kinetic response is optionally monitored over a period of 60 seconds. Incubation for 30 minutes at room temperature is followed by the Second Injection (Tyrode's buffer+10 mM CaCl2)) and the kinetic response is monitored over a period of 60 seconds.
The kinetic response is divided into two distinct phases: monitoring the kinetic response after the First Injection, termed Compound Addition (CA), and monitoring the kinetic response after the Second Injection of 10 mM CaCl2, termed Target Activation (TA). Agonist activity of compounds is evaluated in the Target Activation (TA) phase and it is based on normalization to TA activation by forskolin at 10 μM or GLP-1 at 3.16 nM (EC100)
A good correlation was observed between EC50, data normalized by forskolin and by GLP-1.

T1 sequence (P43220 24-463): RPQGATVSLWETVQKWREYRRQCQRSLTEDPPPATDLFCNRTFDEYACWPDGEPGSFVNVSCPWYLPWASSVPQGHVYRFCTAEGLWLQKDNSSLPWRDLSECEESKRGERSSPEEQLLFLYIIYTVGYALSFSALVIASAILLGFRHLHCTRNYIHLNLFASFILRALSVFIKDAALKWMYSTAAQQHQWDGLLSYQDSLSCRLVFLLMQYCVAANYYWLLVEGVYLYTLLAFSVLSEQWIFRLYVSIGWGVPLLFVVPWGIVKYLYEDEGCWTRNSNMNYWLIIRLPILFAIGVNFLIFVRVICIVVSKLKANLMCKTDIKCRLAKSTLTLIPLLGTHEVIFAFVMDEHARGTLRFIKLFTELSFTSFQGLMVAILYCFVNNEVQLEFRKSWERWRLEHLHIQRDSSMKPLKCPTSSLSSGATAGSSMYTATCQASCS

First: CC(C)C[C@@H]1NC(=O)[C@H](CC(C)C)NC(=O)[C@H](CCC(=O)O)NC(=O)[C@H](Cc2ccccc2)NC(=O)C2(CCCCCCC2)NC(=O)[C@H]2CCCN2C(=O)[C@H](Cc2ccccc2)NC(=O)[C@H](CCC(=O)O)NC(=O)[C@H](Cc2c[nH]c3ccccc23)NC(=O)[C@H](C)NC1=O [compound 54, cyclo(-Phe-Glu-Leu-Leu-Ala-Trp-Glu-Phe-^DPro-Ac8c-)] (cyclo(FELLAWEF[dP][Ac8c]))
Second: CC(C)C[C@@H]1NC(=O)[C@H](CCC(=O)O)NC(=O)[C@H](Cc2ccccc2)NC(=O)C2(CCCCC2)NC(=O)[C@H]2CCCN2C(=O)[C@H](Cc2c[nH]c3ccccc23)NC(=O)[C@H](CCC(=O)O)NC(=O)[C@H](Cc2c[nH]c3ccccc23)NC(=O)[C@H](C)NC(=O)[C@H](Cc2ccc(O)cc2)NC1=O [compound 16, cyclo(-Phe-Glu-Leu-Tyr-Ala-Trp-Glu-Trp-^DPro-Chx-)] (cyclo(FELYAWEW[dP][Ac6c]))
The EC50 of the first is 2.7-fold higher: 1.1 µM for the first, 0.41 µM for the second. The second is the more potent here.

`COc1ccc(C[C@@H]2NC(=O)[C@H](CC(C)C)NC(=O)[C@H](CCC(=O)O)NC(=O)[C@H](Cc3ccccc3)NC(=O)C3(CCCCC3)NC(=O)[C@H]3CCCN3C(=O)[C@H](Cc3ccc(OC)cc3)NC(=O)[C@H](CCC(=O)O)NC(=O)[C@H](Cc3c[nH]c4ccccc34)NC(=O)[C@H](C)NC2=O)cc1` [compound 34, cyclo(-Phe-Glu-Leu-Tyr(Me)-Ala-Trp-Glu-Tyr(Me)-^DPro-Chx-)] (cyclo(FELY(Me)AWEY(Me)[dP][Ac6c])) and `CC(C)C[C@@H]1NC(=O)[C@H](CCC(N)=O)NC(=O)[C@H](Cc2ccccc2)NC(=O)C2(CCCCC2)NC(=O)[C@H]2CCCN2C(=O)[C@H](Cc2ccc(O)cc2)NC(=O)[C@H](CCC(=O)O)NC(=O)[C@H](Cc2c[nH]c3ccccc23)NC(=O)[C@H](C)NC(=O)[C@H](Cc2ccc(O)cc2)NC1=O` [compound 40, cyclo(-Phe-Gln-Leu-Tyr-Ala-Trp-Glu-Tyr-^DPro-Chx-)] (cyclo(FQLYAWEY[dP][Ac6c])) are within error of each other in EC50: 0.73 µM for the first, 1.2 ± 0.6 µM for the second.

`C[C@@H]1NC(=O)[C@H](Cc2ccc(O)cc2)NC(=O)[C@H](CCC(N)=O)NC(=O)[C@H](Cc2ccc(N)cc2)NC(=O)[C@H](Cc2ccccc2)NC(=O)C2(CCCCC2)NC(=O)[C@H]2CCCN2C(=O)[C@H](CCCNC(=N)N)NC(=O)[C@H](CCC(=O)O)NC(=O)[C@H](Cc2c[nH]c3ccccc23)NC1=O` [compound 21, cyclo(-Phe-Phe(4NH2)-Gln-Tyr-Ala-Trp-Glu-Arg-^DPro-Chx-)] (cyclo(F[Phe(4-NH2)]QYAWER[dP][Ac6c])) and `C[C@@H]1NC(=O)[C@H](Cc2ccc(O)cc2)NC(=O)[C@H](CCC(N)=O)NC(=O)[C@H](Cc2c[nH]c3ccccc23)NC(=O)[C@H](Cc2ccccc2)NC(=O)C2(CCCCC2)NC(=O)[C@H]2CCCN2C(=O)[C@H](Cc2ccccc2)NC(=O)[C@H](CCC(=O)O)NC(=O)[C@H](Cc2c[nH]c3ccccc23)NC1=O` [compound 24, cyclo(-Phe-Trp-Gln-Tyr-Ala-Trp-Glu-Phe-^DPro-Chx-)] (cyclo(FWQYAWEF[dP][Ac6c])) are within error of each other in EC50: 0.67 ± 0.28 µM for the first, 0.89 ± 0.51 µM for the second.

`C[C@@H]1NC(=O)[C@H](Cc2ccc(O)cc2)NC(=O)[C@H](CCC(N)=O)NC(=O)[C@H](Cc2c[nH]c3ccccc23)NC(=O)[C@H](Cc2ccccc2)NC(=O)C2(CCCCC2)NC(=O)[C@H]2CCCN2C(=O)[C@H](Cc2ccc(OCc3ccccc3)cc2)NC(=O)[C@H](CCC(=O)O)NC(=O)[C@H](Cc2c[nH]c3ccccc23)NC1=O` [compound 22, cyclo(-Phe-Trp-Gln-Tyr-Ala-Trp-Glu-Tyr(Bn)-^DPro-Chx-)] (cyclo(FWQYAWEY(Bn)[dP][Ac6c])) and `C[C@@H]1NC(=O)[C@H](Cc2ccc(O)cc2)NC(=O)[C@H](CCC(N)=O)NC(=O)[C@H](Cc2c[nH]c3ccccc23)NC(=O)[C@H](Cc2ccccc2)NC(=O)C2(CCCCC2)NC(=O)[C@H]2CCCN2C(=O)[C@H](Cc2c[nH]c3ccccc23)NC(=O)[C@H](CCC(=O)O)NC(=O)[C@H](Cc2c[nH]c3ccccc23)NC1=O` [compound 17, cyclo(-Phe-Trp-Gln-Tyr-Ala-Trp-Glu-Trp-^DPro-Chx-)] (cyclo(FWQYAWEW[dP][Ac6c])) are within error of each other in EC50: 0.72 ± 0.4 µM for the first, 0.6 ± 0.29 µM for the second.

— patent publication US10730911B2, “Backbone-cyclized peptidomimetics with GLP-1R modulating activity” (POLYPHOR AG, priority 2015, dated 2020)
